Results as given in the NIST ThermoML archive (doi:10.1016/j.jct.2006.05.004).
Numbers after ± are expanded uncertainties.

Key:
[1] = xn = mol fraction of the nth substance listed; settings: 298.15 K, 101 kPa, Liquid
[2] = excess molar enthalpy (molar enthalpy of mixing); xn = mol fraction of the nth substance listed; settings: 298.15 K, 101 kPa, Liquid

BrCCBr [1,2-dibromoethane] + COC(C)=O
Settings	excess molar enthalpy [kcal/mol]	mass density [kg/m3]
[1], x2 = 0.0644	–	2093.03 ± 9
[1], x2 = 0.1265	–	2019.85 ± 8.2
[1], x2 = 0.186	–	1949.51 ± 7.4
[1], x2 = 0.2463	–	1877.44 ± 6.7
[1], x2 = 0.3093	–	1801.67 ± 6
[1], x2 = 0.3675	–	1731.26 ± 5.4
[1], x2 = 0.4309	–	1653.78 ± 4.7
[1], x2 = 0.4879	–	1583.49 ± 4.2
[1], x2 = 0.5507	–	1505.69 ± 3.6
[1], x2 = 0.6003	–	1443.71 ± 3.2
[1], x2 = 0.7248	–	1286.24 ± 2.2
[1], x2 = 0.7776	–	1218.54 ± 1.9
[1], x2 = 0.8338	–	1146.14 ± 1.5
[1], x2 = 0.8868	–	1076.96 ± 1.2
[1], x2 = 0.9443	–	1001.13 ± 0.84
[2], x2 = 0.0678	0.0234 ± 0.000741	–
[2], x2 = 0.1329	0.0398 ± 0.001	–
[2], x2 = 0.2086	0.0538 ± 0.0012	–
[2], x2 = 0.2791	0.062 ± 0.00134	–
[2], x2 = 0.3449	0.0668 ± 0.00141	–
[2], x2 = 0.4079	0.0679 ± 0.00143	–
[2], x2 = 0.4651	0.0656 ± 0.00139	–
[2], x2 = 0.5145	0.0616 ± 0.00131	–
[2], x2 = 0.5219	0.0606 ± 0.00131	–
[2], x2 = 0.559	0.0568 ± 0.00124	–
[2], x2 = 0.5731	0.055 ± 0.00122	–
[2], x2 = 0.6281	0.0477 ± 0.0011	–
[2], x2 = 0.6875	0.0384 ± 0.000956	–
[2], x2 = 0.7492	0.0287 ± 0.000813	–
[2], x2 = 0.8149	0.0208 ± 0.000693	–
[2], x2 = 0.8808	0.0122 ± 0.00055	–
[2], x2 = 0.9429	0.00631 ± 0.000478	–

BrCCCCCCBr [1,6-dibromohexane] + COC(C)=O
Settings	excess molar enthalpy [kcal/mol]	mass density [kg/m3]
[1], x2 = 0.2073	–	1527.77 ± 4.4
[1], x2 = 0.2887	–	1489.28 ± 4
[1], x2 = 0.368	–	1448.7 ± 3.6
[1], x2 = 0.44	–	1408.44 ± 3.2
[1], x2 = 0.5134	–	1363.84 ± 2.9
[1], x2 = 0.5691	–	1327.2 ± 2.6
[1], x2 = 0.6301	–	1284.18 ± 2.3
[1], x2 = 0.7305	–	1205.44 ± 1.8
[1], x2 = 0.7765	–	1165.56 ± 1.6
[1], x2 = 0.8189	–	1126.42 ± 1.4
[1], x2 = 0.8614	–	1084.46 ± 1.2
[1], x2 = 0.8974	–	1046.81 ± 0.99
[1], x2 = 0.9345	–	1005.74 ± 0.82
[1], x2 = 0.9663	–	968.1 ± 0.88
[2], x2 = 0.1165	0.063 ± 0.00136	–
[2], x2 = 0.2329	0.104 ± 0.00198	–
[2], x2 = 0.317	0.13 ± 0.00239	–
[2], x2 = 0.4064	0.148 ± 0.00263	–
[2], x2 = 0.4865	0.156 ± 0.00287	–
[2], x2 = 0.553	0.156 ± 0.00287	–
[2], x2 = 0.6074	0.151 ± 0.00263	–
[2], x2 = 0.6546	0.143 ± 0.00263	–
[2], x2 = 0.6988	0.135 ± 0.00239	–
[2], x2 = 0.7443	0.124 ± 0.00229	–
[2], x2 = 0.7905	0.108 ± 0.00206	–
[2], x2 = 0.837	0.0889 ± 0.00174	–
[2], x2 = 0.8808	0.0701 ± 0.00148	–
[2], x2 = 0.9257	0.0424 ± 0.00105	–
[2], x2 = 0.9683	0.0205 ± 0.000717	–

BrCCCCCCBr [1,6-dibromohexane] + COC=O
Settings	excess molar enthalpy [kcal/mol]	mass density [kg/m3]
[1], x2 = 0.0951	–	1574.69 ± 5
[1], x2 = 0.1373	–	1561.81 ± 4.8
[1], x2 = 0.18	–	1547.9 ± 4.6
[1], x2 = 0.2331	–	1529.55 ± 4.4
[1], x2 = 0.3709	–	1475.52 ± 3.8
[1], x2 = 0.4924	–	1417.67 ± 3.2
[1], x2 = 0.5984	–	1357.11 ± 2.7
[1], x2 = 0.6952	–	1290.94 ± 2.3
[1], x2 = 0.799	–	1204.62 ± 1.7
[1], x2 = 0.8251	–	1179.95 ± 1.6
[1], x2 = 0.9038	–	1095.21 ± 1.2
[1], x2 = 0.9183	–	1078.3 ± 1.1
[1], x2 = 0.9504	–	1037.23 ± 0.97
[1], x2 = 0.9718	–	1007.96 ± 0.87
[2], x2 = 0.099	0.0911 ± 0.00179	–
[2], x2 = 0.2052	0.166 ± 0.00287	–
[2], x2 = 0.3188	0.231 ± 0.00406	–
[2], x2 = 0.4099	0.26 ± 0.0043	–
[2], x2 = 0.4481	0.27 ± 0.00454	–
[2], x2 = 0.5059	0.278 ± 0.00478	–
[2], x2 = 0.5777	0.278 ± 0.00454	–
[2], x2 = 0.6385	0.268 ± 0.00454	–
[2], x2 = 0.69	0.252 ± 0.0043	–
[2], x2 = 0.7201	0.241 ± 0.00406	–
[2], x2 = 0.7507	0.227 ± 0.00382	–
[2], x2 = 0.7946	0.203 ± 0.00359	–
[2], x2 = 0.8411	0.169 ± 0.00311	–
[2], x2 = 0.9115	0.108 ± 0.00208	–
[2], x2 = 0.9775	0.0335 ± 0.001	–

BrCCCCBr [1,4-dibromobutane] + COC(C)=O
Settings	excess molar enthalpy [kcal/mol]	mass density [kg/m3]
[1], x2 = 0.0837	–	1770.14 ± 6.4
[1], x2 = 0.1689	–	1713.04 ± 5.8
[1], x2 = 0.2373	–	1664.79 ± 5.3
[1], x2 = 0.3235	–	1601.13 ± 4.6
[1], x2 = 0.3783	–	1558.38 ± 4.2
[1], x2 = 0.4433	–	1505.87 ± 3.8
[1], x2 = 0.5073	–	1451.51 ± 3.4
[1], x2 = 0.5682	–	1397.42 ± 3
[1], x2 = 0.6216	–	1347.79 ± 2.7
[1], x2 = 0.6771	–	1293.95 ± 2.3
[1], x2 = 0.7431	–	1226.93 ± 1.9
[1], x2 = 0.8273	–	1135.92 ± 1.4
[1], x2 = 0.9151	–	1033.42 ± 0.94
[1], x2 = 0.9603	–	977.5 ± 0.87
[2], x2 = 0.0848	0.0432 ± 0.00105	–
[2], x2 = 0.1755	0.0741 ± 0.00153	–
[2], x2 = 0.2635	0.0955 ± 0.00184	–
[2], x2 = 0.3449	0.109 ± 0.00206	–
[2], x2 = 0.4161	0.116 ± 0.00217	–
[2], x2 = 0.4816	0.118 ± 0.0022	–
[2], x2 = 0.5389	0.115 ± 0.00215	–
[2], x2 = 0.5872	0.109 ± 0.00206	–
[2], x2 = 0.6316	0.103 ± 0.00196	–
[2], x2 = 0.6695	0.0954 ± 0.00184	–
[2], x2 = 0.7038	0.089 ± 0.00174	–
[2], x2 = 0.755	0.0763 ± 0.00155	–
[2], x2 = 0.8095	0.062 ± 0.00134	–
[2], x2 = 0.8632	0.046 ± 0.0011	–
[2], x2 = 0.9128	0.0316 ± 0.00086	–
[2], x2 = 0.9584	0.0149 ± 0.000621	–
